{"source": "patent US20150141375A1", "about": "(priority 2009, published 2015)", "key": {"Variola major": {"system": "Variola major", "assay": "organism not typed", "format": "cell-based", "conditions": "Vero 76"}, "HPV 18": {"system": "HPV 18", "assay": "In vitro potency against dsDNA viruses: HPV 18", "format": "cell-based", "conditions": "HeLa"}, "BK Virus": {"system": "BK Virus", "assay": "In vitro potency against BK Virus in WI-38 cells", "format": "cell-based", "conditions": "Betapolyomavirus hominis, WI-38"}, "Vaccinia Virus": {"system": "Vaccinia Virus", "assay": "microbe, parasite or virus in culture", "format": "cell-based", "conditions": "Orthopoxvirus vaccinia, HFF"}, "HSV-2": {"system": "HSV-2", "assay": "In vitro efficacy against HSV-2 strains in HFF (CPE, plaque reduction)", "format": "cell-based", "description": "In vitro screening by CPE assay in human foreskin fibroblast (HFF) cells with confirmation using plaque reduction assays in HFF."}, "HCMV(AD169)": {"system": "HCMV(AD169)", "assay": "In vitro potency against dsDNA viruses: HCMV", "format": "cell-based", "conditions": "Human betaherpesvirus 5, AD169, MRC5; MRC-5"}, "[1]": {"conditions": "Vistide 5 mg/kg with probenecid; cited from earlier work"}, "PK comparison, rabbit": {"assay": "PK comparison, rabbit", "conditions": "in vivo, 2 mg/kg, calculated from doses of 5 and 10 mg/kg, analyte = label, after CMX001", "description": "(§1) Table 4 illustrates the PK comparison of CMX001 with CMX021 and CMX064 for mouse, rabbit and human."}, "EBV": {"system": "EBV", "assay": "In vitro potency against dsDNA viruses: EBV", "format": "cell-based", "conditions": "human gammaherpesvirus 4; Dardi"}, "SVG cells": {"system": "SVG cells", "assay": "SVG cell viability / cell number (MTS, alamar blue, hematoxylin)", "format": "cell-based, human", "method": "Quantification of cell viability using the MTS [3-(4,5-dimethylthiazol-2-yl)-5-(3-carboxymethoxyphenyl)-2-(4-sulfophenyl)-2H-tetrazolium] assay is based on bioactivity of mitochondrial dehydrogenase in living cells, which converts colorless tetrazolium salt to a colored formazan. MTS assays were performed according to manufacturer's instructions (Promega, Madison Wis.). Briefly, culture medium was removed from cells and 50 μL of PBS was added into each well of a 96 well plate. Ten μL of MTS reagent were added to wells of cells, and to a well without cells to determine background. Mixtures were incubated at 37° C. for 2 hours and the absorbance was measured at 490 nm. Trypan blue staining was performed on identical cultures to correlate MTS values with cell viability. The final values indicated are the result from 3 replicates. The value for the non-treated control was set to 100% and all other values are represented as a percentage of the control. Alamar blue (AB) assay.\nQuantification of cell viability using the alamar blue (AB) assay was performed according to the manufacturer's instructions (Invitrogen, Gaithersburg, Md.). Briefly, 10 μL of AB reagent was added to each well of a 96 well dish containing cells or without cells to determine background. Mixtures were incubated at 37° C. for 6 hours and the absorbance measured at 570 nm using 600 nm as a reference wavelength. The value for the non-treated control was set to 100% and all other values are represented as a percentage of the control.\nBecause cell density in cultures processed for in situ DNA hybridization could not be measured by MTS or AB assays, cell density was approximated in cell cultures processed by quantifying hematoxylin staining intensity. Coverslips containing cells were prepared for in situ DNA hybridization and co-stained with hematoxylin. Subsequently, each coverslip was scanned and the hematoxylin intensities quantified using ImageJ. To determine the total cell number per coverslip, images were acquired at 10 random positions at 100× magnification. Cells were counted throughout each image and the average cell number per slide was generated by averaging counts from the 10 images for each experimental group. Exactly 900 images at 100× magnification cover the surface of an 18 mm×18 mm coverslip."}, "HPV 11": {"system": "HPV 11", "assay": "In vitro potency against dsDNA viruses: HPV 11", "format": "cell-based", "conditions": "A-431; A431"}, "Mad-4 JCV": {"system": "Mad-4 JCV", "assay": "JCV (Mad-4) initial infection of SVG cells (in situ DNA hybridization, qPCR)"}, "Adenovirus": {"system": "Adenovirus", "assay": "In vitro activity against Adenovirus (HFF; AdV 5)", "format": "cell-based", "conditions": "unidentified adenovirus"}, "HSV-1 [2]": {"system": "HSV-1", "assay": "In vitro potency against dsDNA viruses: HSV-1", "format": "cell-based", "conditions": "Human alphaherpesvirus 1, MRC5; MRC-5"}, "PK comparison, mouse": {"assay": "PK comparison, mouse", "format": "in vivo", "conditions": "2 mg/kg, calculated from doses of 2 and 10 mg/kg, analyte = label, after CMX001", "description": "as §1"}, "HHV-6": {"system": "HHV-6", "assay": "In vitro potency against dsDNA viruses: HHV-6", "format": "cell-based", "conditions": "HSB2; HSB-2"}, "HSV-1 [3]": {"system": "HSV-1", "assay": "microbe, parasite or virus in culture", "format": "cell-based"}, "JC": {"system": "JC", "assay": "In vitro potency against dsDNA viruses: JC", "format": "cell-based, JC virus", "conditions": "JC polyomavirus"}, "[4]": {"assay": "Safety and pharmacokinetics of CMX001 in healthy volunteers", "format": "in vivo, human", "conditions": "blood, Human, analyte = label", "method": "An initial study was conducted to evaluate the safety and pharmacokinetics of CMX001 in healthy volunteers. The study consisted of a single dose arm (SD) and a multiple dose arm (MD). In the single dose arm 7 cohorts of 6 subjects were treated (4 subjects received active drug and 2 placebo). Enrollment was staggered as 2 subjects (one active, one placebo) followed by 4 subjects (Groups A and B). The estimated single doses for the two highest doses treated for a […] subject were 40 mg (0.6 mg/kg cohort 6) and 70 mg (1 mg/kg cohort 7). In the multiple dose arm, cohort 6MD received 0.1 mg/kg on Day 0, 6 and 12; Cohort 7MD received 0.2 mg/kg on Day 0, 6 and 12. Levels of cidofovir, CMX001 and CMX064 (major metabolite) were measured in blood and urine of subjects during the course of the study. Gastrointestinal (GI) monitoring of the subjects included (a) monitoring for clinical signs of GI adverse events, (b) monitoring for clinical symptoms using a visual Analog Scale, (c) monitoring for appetite loss/anorexia, nausea, vomiting, diarrhea, constipation and intestinal gas/bloating, (d) laboratory tests for fecal occult blood; serum electrolytes, urine specific gravity, BUN/creatinine ratio; serum albumin, and lipids, and (e) diagnostic studies (the Wireless capsule endoscopy (PillCam®, Given Imaging))."}, "CMV": {"system": "CMV", "conditions": "person with renal failure, all observed time points after CMX001"}, "BKV(Dunlop)": {"system": "BKV(Dunlop)", "conditions": "RPTECs, same test system (Bernhoff et al., 2008), cited from earlier work"}, "HCMV (AD169)": {"system": "HCMV (AD169)", "assay": "HCMV real time array of viral transcripts", "format": "cell-based", "conditions": "CDV 50 μM, GCV 15 μM, CMX001 0.5 μM; ANOVA P<0.05"}}, "note": "Entries after “also recorded” stand apart in the source; their conditions may differ."}
{"smiles": "Nc1ccn(C[C@@H](CO)OCP(=O)(O)O)c(=O)n1", "note": "[Cidofovir, cidofovir, reference compound]", "values": [{"measurement": "EC50", "setting": "Variola major", "value": 27.3, "unit": "µM"}, {"measurement": "EC50", "setting": "HPV 18", "value": 516, "unit": "µM"}, {"measurement": "EC50", "setting": "BK Virus", "value": 115, "unit": "µM"}, {"measurement": "EC50", "setting": "Vaccinia Virus", "value": 46, "unit": "µM"}, {"measurement": "EC50", "setting": "HSV-2; Human alphaherpesvirus 2, strain G", "value": "5.5 ± 2.1", "unit": "µM"}, {"measurement": "EC50", "setting": "HSV-2; Human alphaherpesvirus 2, strain MS", "value": "5.1 ± 5.4", "unit": "µM"}, {"measurement": "EC50", "setting": "HSV-2; Human alphaherpesvirus 2, strain SR", "value": "5.9 ± 5.9", "unit": "µM"}, {"measurement": "EC50", "setting": "HCMV(AD169)", "value": 0.38, "unit": "µM"}, {"measurement": "peak plasma concentrations of cidofovir", "setting": "[1]", "value": "19,600 ng/mL"}, {"measurement": "AUC", "setting": "PK comparison, rabbit", "value": 50.1, "unit": "ng·h/mL"}, {"measurement": "Cmax", "setting": "PK comparison, rabbit", "value": 5.44, "unit": "ng/mL"}, {"measurement": "EC50", "setting": "EBV", "value": "> 170", "unit": "µM"}, {"measurement": "cytotoxicity (total cell number)", "setting": "SVG cells; CDV 0.01 to 0.1 μM", "value": "did not cause cytotoxicity at any concentration tested"}, {"measurement": "cell density and viability", "setting": "SVG cells; CDV 0.1 to 1 μM, 4 days", "value": "did not elicit any visible changes"}, {"measurement": "EC50", "setting": "HPV 11", "value": 716, "unit": "µM"}, {"measurement": "reduction in JCV DNA containing cells", "setting": "Mad-4 JCV; CDV 0.01 to 0.1 μM, listed as CDV", "value": "did not elicit any significant reduction; also recorded: did not show any effect on JCV replication"}, {"measurement": "copy number of JCV genomes (qPCR)", "setting": "Mad-4 JCV; CDV, any concentration tested", "value": "had no affect"}, {"measurement": "IC50", "setting": "Adenovirus", "value": 1.3, "unit": "µM"}, {"measurement": "EC50", "setting": "Adenovirus; HFF", "value": 1.3, "unit": "µM"}, {"measurement": "EC50", "setting": "HSV-1 [2]", "value": 15, "unit": "µM"}, {"measurement": "Cmax", "setting": "PK comparison, mouse", "value": "BQL-"}, {"measurement": "EC50", "setting": "HHV-6", "value": 0.2, "unit": "µM"}, {"measurement": "EC50", "setting": "HSV-1 [3]; Human alphaherpesvirus 1, strain E-377", "value": "5.5 ± 6", "unit": "µM"}, {"measurement": "EC50", "setting": "HSV-1 [3]; Human alphaherpesvirus 1, strain F", "value": "1.5 ± 0.4", "unit": "µM"}, {"measurement": "EC50", "setting": "HSV-1 [3]; Human alphaherpesvirus 1, strain HL-3", "value": "3.6 ± 3", "unit": "µM"}, {"measurement": "EC50", "setting": "JC", "value": 0.38, "unit": "µM"}, {"measurement": "AUC", "setting": "[4]; 0.05 mg/kg, CMX001 0.050 mg/kg", "value": 33.3, "unit": "ng·h/mL"}, {"measurement": "Cmax", "setting": "[4]; 0.05 mg/kg, CMX001 0.050 mg/kg", "value": 1.51, "unit": "ng/mL"}, {"measurement": "AUC", "setting": "[4]; 0.1 mg/kg, CMX001 0.100 mg/kg", "value": 125, "unit": "ng·h/mL"}, {"measurement": "Cmax", "setting": "[4]; 0.1 mg/kg, CMX001 0.100 mg/kg", "value": 3.44, "unit": "ng/mL"}, {"measurement": "AUC", "setting": "[4]; 0.2 mg/kg, CMX001 0.200 mg/kg", "value": 190, "unit": "ng·h/mL"}, {"measurement": "Cmax", "setting": "[4]; 0.2 mg/kg, CMX001 0.200 mg/kg", "value": 5.41, "unit": "ng/mL"}, {"measurement": "AUC", "setting": "[4]; 0.4 mg/kg, CMX001 0.400 mg/kg", "value": 445, "unit": "ng·h/mL"}, {"measurement": "Cmax", "setting": "[4]; 0.4 mg/kg, CMX001 0.400 mg/kg", "value": 10.4, "unit": "ng/mL"}, {"measurement": "AUC", "setting": "[4]; 0.6 mg/kg, CMX001 0.600 mg/kg", "value": 519, "unit": "ng·h/mL"}, {"measurement": "Cmax", "setting": "[4]; 0.6 mg/kg, CMX001 0.600 mg/kg", "value": 12.2, "unit": "ng/mL"}, {"measurement": "plasma concentrations of cidofovir", "setting": "CMV", "value": "below 250 ng/mL"}, {"measurement": "IC-90 of CDV, BKV replication", "setting": "BKV(Dunlop)", "value": 40, "unit": "µg/mL"}, {"measurement": "IC90", "setting": "BKV(Dunlop); read-out: IC-90 of CDV, BKV replication", "value": 127, "unit": "µM"}, {"measurement": "levels of viral transcripts", "setting": "HCMV (AD169)", "value": "Significant reductions in levels of most viral transcripts"}]}
